From patent publication US4086349A, “Quinolopyran-4-one-2-carboxylic acid derivatives and salts thereof as novel compounds and as medicines for treatment of allergic asthma” (Mitsubishi Yuka Pharmaceutical Co., Ltd., priority 1975, dated 1978)

What was measured:
[1] = tested on: passive cutaneous anaphylaxis; assay: Passive cutaneous anaphylaxis tests (PCA) on rats; assay type: in vivo, SLC-strain Wistar rat; settings: intravenous, rat PCA; for inhibition in vivo at 3 mg/kg / inhibition in vivo at 0.3 mg/kg: read-out: Inhibition rate
Description: To test the effectiveness of compounds of this invention for treatment of allergic asthma, evaluation of antiallergy effect was carried out by passive cutaneous anaphylaxis tests (PCA) on rats.
Rats (SLC-strain Wistar rat) were immunized with egg albumin which had been recrystallized five times and Bodetella pertussis vaccine, and, after 13 days, serum was taken from these rats.
This serum was diluted to 1/128 and intradermally injected into the back of rats. 48 hours thereafter, the compounds of the invention as set forth in the following table in the form of salts thereof with tris (hydroxymethyl)methyl ammonium dissolved in saline in the indicated quantities as the salts were administered intravenously, and 5 minutes thereafter, saline in which egg albumin and Evans Blue were dissolved was challenged intravenously. After 30 minutes, the animals were killed and the skins were removed and the quantity of the Evans Blue which has leaked as a result of the antigen antibody reaction was extracted through the use of Na2 SO4 solution and acetone, colorimetry being carried out at 620 mμ.

allergic asthma = assay: Classification in view of activity on treatment of allergic asthma; assay type: in vivo; settings: first group most preferable, second more preferable, third preferable
[2] = 50% lethal dose (LD50), i.v., mouse; settings: in vivo, iv
[3] = dose 3 mg/kg (quantity as the tris (hydroxymethyl) methyl ammonium salt)
[4] = dose 0.3 mg/kg (quantity as the tris (hydroxymethyl) methyl ammonium salt)

Cc1cc(C)c2nc(O)c3c(=O)cc(C(=O)O)oc3c2c1 [Compound 12, 7,9-dimethyl-5-hydroxy-quinolo[4,3-b]-pyran-4-one-2-carboxylic acid]
inhibition in vivo at 3 mg/kg [1, 3]: 90%

O=C(O)c1cc(=O)c2c(O)nc3ccc(OCc4ccccc4)cc3c2o1 [Compound 8, 9-benzyloxy-5-hydroxy-quinolo[4,3-b]-pyran-4-one-2-carboxylic acid]
preference group in view of activity on treatment of allergic asthma (allergic asthma): more preferable | inhibition in vivo at 0.3 mg/kg [1, 4]: 34% | inhibition in vivo at 3 mg/kg [1, 3]: 96%

CCOC(=O)c1ccc2nc(O)c3c(=O)cc(C(=O)O)oc3c2c1 [Compound 9, 9-ethoxycarbonyl-5-hydroxy-quinolo[4,3-b]-pyran-4-one-2-carboxylic acid]
preference group in view of activity on treatment of allergic asthma (allergic asthma): more preferable | inhibition in vivo at 0.3 mg/kg [1, 4]: 39% | inhibition in vivo at 3 mg/kg [1, 3]: 100%

Cc1c(Cl)ccc2c1nc(O)c1c(=O)cc(C(=O)O)oc12 [Compound 11, 7-methyl-8-chloro-5-hydroxy-quinolo[4,3-b]-pyran-4-one-2-carboxylic acid]
preference group in view of activity on treatment of allergic asthma (allergic asthma): more preferable | Inhibition rate [1, 4]: 26% | Inhibition rate [1, 3]: 87%

O=C(O)c1cc(=O)c2c(O)nc3ccc(Br)cc3c2o1 [Compound 13, 9-bromo-5-hydroxy-quinolo[4,3-b]-pyran-4-one-2-carboxylic acid]
inhibition in vivo at 3 mg/kg [1, 3]: 90%

CCc1ccc2nc(O)c3c(=O)cc(C(=O)O)oc3c2c1 [Compound 17, 9-ethyl-5-hydroxy-quinolo[4,3-b]-pyran-4-one-2-carboxylic acid]
inhibition in vivo at 3 mg/kg [1, 3]: 90%

Cc1cccc2c1nc(O)c1c(=O)cc(C(=O)O)oc12 [Compound 3, 7-methyl-5-hydroxy-quinolo [4,3-b]-pyran-4-one-2-carboxylic acid]
inhibition in vivo at 0.3 mg/kg [1, 4]: 27% | inhibition in vivo at 3 mg/kg [1, 3]: 100%

COc1cc2nc(O)c3c(=O)cc(C(=O)O)oc3c2cc1OC [Compound 16, 8,9-dimethoxy-5-hydroxy-quinolo[4,3-b]-pyran-4-one-2-carboxylic acid]
inhibition in vivo at 3 mg/kg [1, 3]: 90%

Cc1ccc2c(nc(O)c3c(=O)cc(C(=O)O)oc32)c1C [Compound 1, 7,8-dimethyl-5-hydroxy-quinolo [4,3-b]-pyran-4-one-2-carboxylic acid]
preference group in view of activity on treatment of allergic asthma (allergic asthma): most preferable | LD50 [2]: 560 mg/kg | selectivity ratio [2]: 20000 | inhibition in vivo at 0.3 mg/kg [1, 4]: 98% | inhibition in vivo at 3 mg/kg [1, 3]: 100%

O=C(O)c1cc(=O)c2c(O)nc3ccc(-c4ccccc4)cc3c2o1 [Compound 10, 9-phenyl-5-hydroxy-quinolo[4,3-b]-pyran-4-one-2-carboxylic acid]
preference group in view of activity on treatment of allergic asthma (allergic asthma): preferable | inhibition in vivo at 3 mg/kg [1, 3]: 90%

O=C(O)c1cc(=O)c2c(O)nc3ccc(Cl)cc3c2o1 [Compound 7, 9-chloro-5-hydroxy-quinolo[4,3-b]-pyran-4-one-2-carboxylic acid]
preference group in view of activity on treatment of allergic asthma (allergic asthma): most preferable | inhibition in vivo at 0.3 mg/kg [1, 4]: 67% | inhibition in vivo at 3 mg/kg [1, 3]: 100%

COc1ccc2c(c1)nc(O)c1c(=O)cc(C(=O)O)oc12 [Compound 15, 8-methoxy-5-hydroxy-quinolo[4,3-b]-pyran-4-one-2-carboxylic acid]
inhibition in vivo at 3 mg/kg [1, 3]: 90%

COc1cccc2c1nc(O)c1c(=O)cc(C(=O)O)oc12 [Compound 5, 7-methoxy-5-hydroxy-quinolo[4,3-b]-pyran-4-one-2-carboxylic acid]
inhibition in vivo at 0.3 mg/kg [1, 4]: 37% | inhibition in vivo at 3 mg/kg [1, 3]: 98%

CCCCc1ccc2nc(O)c3c(=O)cc(C(=O)O)oc3c2c1 [Compound 6, 9-n-butyl-5-hydroxy-quinolo[4,3-b]-pyran-4-one-2-carboxylic acid]
inhibition in vivo at 0.3 mg/kg [1, 4]: 26% | inhibition in vivo at 3 mg/kg [1, 3]: 94%

Cc1ccc2nc(O)c3c(=O)cc(C(=O)O)oc3c2c1 [Compound 2, 9-methyl-5-hydroxy-quinolo [4,3-b]-pyran-4-one-2-carboxylic acid]
preference group in view of activity on treatment of allergic asthma (allergic asthma): most preferable | inhibition in vivo at 0.3 mg/kg [1, 4]: 63% | inhibition in vivo at 3 mg/kg [1, 3]: 100%

COc1ccc2nc(O)c3c(=O)cc(C(=O)O)oc3c2c1 [Compound 4, 9-methoxy-5-hydroxy-quinolo[4,3-b]-pyran-4-one-2-carboxylic acid]
inhibition in vivo at 0.3 mg/kg [1, 4]: 38% | inhibition in vivo at 3 mg/kg [1, 3]: 98%

O=C(O)c1cc(=O)c2c(O)nc3ccc(F)cc3c2o1 [Compound 14, 9-fluoro-5-hydroxy-quinolo[4,3-b]-pyran-4-one-2-carboxylic acid]
inhibition in vivo at 3 mg/kg [1, 3]: 90%
